Laboratory results as given in patent US20250170248A1, “SMARCA DEGRADERS AND USES THEREOF” (Kymera Therapeutics, Inc., priority 2021, published 2025).

Assays:
Type in all cases: cell-based
SMARCA4 = target: T1, SMARCA4 (Homo sapiens, UniProt P51532); test: SMARCA4 Western blot degradation in MV4-11 cells; conditions: for Dmax: MV4-11, MV4-11 cells, read-out: SMARCA4 MSD MV411 degradation 24 h: average Dmax %; for Dmax / DC50: 24 h; for DC50 / SMARCA4 MSD MV411 degradation 24 h: average Dmax %: MV4-11 cells; for DC50: read-out: SMARCA4 MSD MV411 degradation 24 h: Mean external-Abs DC50
T1 construct: SMARCA2/SMARCA4 protein degradation selectivity in MV4-11 cells; endogenous in cells; host or cells: MV4-11
T1 sequence (P51532 whole entry): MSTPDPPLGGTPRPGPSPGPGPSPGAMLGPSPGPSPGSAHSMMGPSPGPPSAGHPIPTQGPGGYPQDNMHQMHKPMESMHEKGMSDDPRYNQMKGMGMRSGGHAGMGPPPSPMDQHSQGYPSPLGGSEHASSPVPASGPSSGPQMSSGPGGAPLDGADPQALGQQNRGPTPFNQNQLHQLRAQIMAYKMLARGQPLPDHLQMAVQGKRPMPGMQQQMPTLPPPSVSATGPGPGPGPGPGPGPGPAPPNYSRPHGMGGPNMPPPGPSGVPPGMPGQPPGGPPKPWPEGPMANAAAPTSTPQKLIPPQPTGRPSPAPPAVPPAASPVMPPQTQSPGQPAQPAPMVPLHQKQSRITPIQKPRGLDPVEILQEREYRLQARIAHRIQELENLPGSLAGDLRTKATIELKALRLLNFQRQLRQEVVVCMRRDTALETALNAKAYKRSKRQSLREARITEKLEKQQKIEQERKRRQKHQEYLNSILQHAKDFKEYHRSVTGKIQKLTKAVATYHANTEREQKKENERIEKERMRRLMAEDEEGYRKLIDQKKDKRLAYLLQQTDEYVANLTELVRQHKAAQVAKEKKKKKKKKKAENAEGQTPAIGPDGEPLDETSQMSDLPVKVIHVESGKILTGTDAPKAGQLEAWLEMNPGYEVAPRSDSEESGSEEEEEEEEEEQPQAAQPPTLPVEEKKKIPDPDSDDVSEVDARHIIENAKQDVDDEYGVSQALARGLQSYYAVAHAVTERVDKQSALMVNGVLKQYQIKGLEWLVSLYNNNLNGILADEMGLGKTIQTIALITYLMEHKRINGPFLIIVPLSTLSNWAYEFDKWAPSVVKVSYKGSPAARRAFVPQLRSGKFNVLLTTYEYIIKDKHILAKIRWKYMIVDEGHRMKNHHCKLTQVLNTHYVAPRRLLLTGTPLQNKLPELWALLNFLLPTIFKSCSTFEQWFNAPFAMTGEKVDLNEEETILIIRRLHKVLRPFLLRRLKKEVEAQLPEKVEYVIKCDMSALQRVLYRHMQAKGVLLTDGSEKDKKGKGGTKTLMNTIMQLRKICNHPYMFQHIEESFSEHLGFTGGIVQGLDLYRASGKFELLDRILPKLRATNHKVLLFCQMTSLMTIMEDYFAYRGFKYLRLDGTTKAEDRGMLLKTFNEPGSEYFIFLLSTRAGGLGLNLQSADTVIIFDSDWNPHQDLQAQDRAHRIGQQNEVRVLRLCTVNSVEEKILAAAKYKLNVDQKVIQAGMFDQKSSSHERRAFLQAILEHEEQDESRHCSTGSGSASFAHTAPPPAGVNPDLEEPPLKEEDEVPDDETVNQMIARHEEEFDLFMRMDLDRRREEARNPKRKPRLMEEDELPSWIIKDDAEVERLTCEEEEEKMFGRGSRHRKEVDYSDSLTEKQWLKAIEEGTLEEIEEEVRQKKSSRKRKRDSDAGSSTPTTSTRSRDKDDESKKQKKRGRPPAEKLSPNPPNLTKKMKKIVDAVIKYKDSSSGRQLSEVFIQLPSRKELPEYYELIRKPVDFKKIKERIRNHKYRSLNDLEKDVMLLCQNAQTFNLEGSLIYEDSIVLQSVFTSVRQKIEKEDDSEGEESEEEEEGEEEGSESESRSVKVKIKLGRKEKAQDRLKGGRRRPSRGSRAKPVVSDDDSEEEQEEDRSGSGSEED
In short: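 MV4-11 cells (4×10^6/well) treated with compound for 24 h, lysed in RIPA with protease/phosphatase inhibitors, and SMARCA2, SMARCA4 and beta-actin detected by Western blot with LI-COR readout. Values reported as letter-coded DC50, 24 h Dmax % and SMARCA2/4 selectivity fold.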

SMARCA2 [1] = target: T2, SMARCA2 (Homo sapiens, UniProt P51531); test: MSD SMARCA2 degradation in A549 cell line; conditions: for Dmax: A549, A549 cells; for Dmax / DC50: 24 h; for DC50 / SMARCA2 MSD A549 degradation 24 h: Average Dmax %: A549 cells; for DC50: read-out: SMARCA2 MSD A549 degradation 24 h: Average external-Abs DC50
T2 sequence (P51531 whole entry): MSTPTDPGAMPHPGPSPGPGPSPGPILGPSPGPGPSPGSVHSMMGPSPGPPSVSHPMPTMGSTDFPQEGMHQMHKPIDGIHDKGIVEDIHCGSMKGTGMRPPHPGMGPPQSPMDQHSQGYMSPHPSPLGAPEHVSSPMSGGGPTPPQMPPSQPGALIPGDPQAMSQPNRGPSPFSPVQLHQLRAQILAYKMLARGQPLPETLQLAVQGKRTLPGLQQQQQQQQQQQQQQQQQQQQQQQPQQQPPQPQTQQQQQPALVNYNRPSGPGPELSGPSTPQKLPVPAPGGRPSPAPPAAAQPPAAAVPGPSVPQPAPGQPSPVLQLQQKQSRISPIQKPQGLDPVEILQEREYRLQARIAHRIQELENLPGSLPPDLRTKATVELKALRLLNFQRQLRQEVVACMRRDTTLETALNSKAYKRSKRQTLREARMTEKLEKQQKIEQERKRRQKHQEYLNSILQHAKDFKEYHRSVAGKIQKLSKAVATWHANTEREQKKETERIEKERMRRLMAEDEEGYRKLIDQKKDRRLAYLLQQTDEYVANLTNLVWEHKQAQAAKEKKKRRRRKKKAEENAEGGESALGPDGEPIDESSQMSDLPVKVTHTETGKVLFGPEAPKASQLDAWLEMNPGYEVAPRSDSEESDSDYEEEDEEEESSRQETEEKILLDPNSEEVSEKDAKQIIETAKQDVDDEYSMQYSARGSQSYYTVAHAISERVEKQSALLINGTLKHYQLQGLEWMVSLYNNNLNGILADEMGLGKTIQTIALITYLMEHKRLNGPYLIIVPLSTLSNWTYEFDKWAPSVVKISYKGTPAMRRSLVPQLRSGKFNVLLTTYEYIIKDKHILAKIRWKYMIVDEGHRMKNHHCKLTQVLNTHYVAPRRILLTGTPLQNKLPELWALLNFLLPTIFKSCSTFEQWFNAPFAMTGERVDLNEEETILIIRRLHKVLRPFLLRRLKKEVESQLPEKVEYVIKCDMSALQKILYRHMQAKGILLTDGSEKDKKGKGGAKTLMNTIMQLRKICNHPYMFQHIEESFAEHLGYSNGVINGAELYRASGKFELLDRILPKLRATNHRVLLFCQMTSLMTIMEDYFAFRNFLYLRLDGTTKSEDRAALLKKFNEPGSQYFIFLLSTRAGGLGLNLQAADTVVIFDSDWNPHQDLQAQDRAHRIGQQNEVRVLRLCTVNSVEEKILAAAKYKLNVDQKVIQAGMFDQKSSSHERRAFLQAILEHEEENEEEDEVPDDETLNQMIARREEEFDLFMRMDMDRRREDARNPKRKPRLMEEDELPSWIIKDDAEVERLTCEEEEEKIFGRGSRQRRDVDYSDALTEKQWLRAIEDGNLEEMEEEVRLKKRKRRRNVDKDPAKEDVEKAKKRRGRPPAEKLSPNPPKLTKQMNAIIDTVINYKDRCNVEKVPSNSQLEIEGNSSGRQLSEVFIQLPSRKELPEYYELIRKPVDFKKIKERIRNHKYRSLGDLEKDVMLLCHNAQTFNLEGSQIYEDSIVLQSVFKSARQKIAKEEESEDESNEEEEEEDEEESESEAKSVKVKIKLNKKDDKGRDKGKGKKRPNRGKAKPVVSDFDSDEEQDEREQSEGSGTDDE
In short: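 A549 cells treated 24 h with compound, 3-fold series from 1000 nM. Lysates captured on MSD plates and SMARCA2 quantified with anti-SMARCA2 and SULFO-TAG secondary antibodies (electrochemiluminescence). DC50 and Dmax (% degradation at 24 h) reported as letter bins.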

SMARCA2 [2] = target: T2, SMARCA2; test: SMARCA2 Western blot degradation in MV4-11 cells; set-up: SMARCA2/SMARCA4 protein degradation selectivity in MV4-11 cells; endogenous in cells; host or cells: MV4-11; conditions: for Dmax: MV4-11, MV4-11 cells, read-out: SMARCA2 MSD MV411 degradation 24 h: average Dmax %; for Dmax / DC50 / SMARCA2 MSD MV411 degradation 24 h: average Dmax %: 24 h; for DC50 / Selectivity in MV411 / SMARCA2 MSD MV411 degradation 24 h: average Dmax %: MV4-11 cells; for DC50: read-out: SMARCA2 MSD MV411 degradation 24 h: Mean external-Abs DC50; for Selectivity in MV411: SMARCA2/4 selectivity

Structure (SMILES)	Dmax (SMARCA4) [%]	DC50 (SMARCA4) [nM]	Dmax (SMARCA2 [1]) [%]	DC50 (SMARCA2 [1]) [nM]	Dmax (SMARCA2 [2]) [%]	DC50 (SMARCA2 [2]) [nM]	Selectivity in MV411 (SMARCA2 [2])	SMARCA4 MSD MV411 degradation 24 h: average Dmax % (SMARCA4)	SMARCA2 MSD A549 degradation 24 h: Average Dmax % (SMARCA2 [1])	SMARCA2 MSD MV411 degradation 24 h: average Dmax % (SMARCA2 [2])
C#Cc1ccc(CNC(=O)[C@@H]2C[C@@H](O)CN2C(=O)[C@@H](NC(=O)N2CC3(CC(N4CCC(c5cnc(N6CCc7[nH]c8nnc(-c9ccccc9O)cc8c7[C@H]6C)nc5)CC4)C3)C2)C(C)(C)CCN2CCOCC2)cc1 (single isomer, unassigned) [I-338]	< 50	> 100	< 50	> 100	< 50	> 100	C (C (10-100 fold))			
C#Cc1ccc(CNC(=O)[C@@H]2C[C@@H](O)CN2C(=O)[C@@H](NC(=O)[C@H]2CC3(C2)C[C@H](N2CCC(N4CCC(N5CCN6c7cc(-c8ccccc8O)nnc7NC[C@H]6C5)CC4)CC2)C3)C(C)(C)CCO)cc1 (single isomer, unassigned) [I-364]	< 50	> 100	70 to 90	> 100	50 to 70	10 to 100	B (B (>100-500 fold))			
C#Cc1ccc(CNC(=O)[C@@H]2C[C@@H](O)CN2C(=O)[C@@H](NC(=O)[C@H]2CC3(C2)C[C@H](N2CCC(N4CCC(N5CCN6c7cc(-c8ccccc8O)nnc7NC[C@H]6C5)CC4)CC2)C3)C(C)(C)CCO)cc1 (single isomer, unassigned) [I-365]		> 100		> 100		1 to 10	A (A (>500 fold))	D (D (<50% degradation))	A (A (>90% degradation))	B (B (>70-90% degradation))
Cc1ncsc1-c1ccc(CNC(=O)[C@@H]2C[C@@H](O)CN2C(=O)C(c2cc(N3CC4(CC(N5CCC(c6cnc(N7CCc8[nH]c9nnc(-c%10ccccc%10O)cc9c8[C@@H]7C)nc6)CC5)C4)C3)no2)C(C)C)cc1 (stereo partly drawn) [I-11]	> 90	10 to 100	> 90	10 to 50	> 90	1 to 10	D (D (<10 fold))			
Cc1ncsc1-c1ccc(CNC(=O)[C@@H]2C[C@@H](O)CN2C(=O)C(c2cc(N3CCC4(CC3)CC(N3CCC(c5cnc(N6CCc7[nH]c8nnc(-c9ccccc9O)cc8c7[C@H]6C)nc5)CC3)C4)no2)C(C)C)cc1 (stereo partly drawn) [I-13]	> 90	10 to 100	> 90	10 to 50	> 90	1 to 10	C (C (10-100 fold))			
Cc1ncsc1-c1ccc(CNC(=O)[C@@H]2C[C@@H](O)CN2C(=O)[C@@H](NC(=O)[C@H]2CC3(C2)C[C@H](N2CCN(c4cnc(N5CCN6c7cc(-c8ccccc8O)nnc7NC[C@H]6C5)nc4)CC2)C3)C(C)(C)C)cc1 (stereo partly drawn) [I-18]	< 50	10 to 100				10 to 100	C (C (10-100 fold))		D (D (<50% degradation))	D (D (<50% degradation))
Cc1ncsc1-c1ccc(CNC(=O)[C@@H]2C[C@@H](O)CN2C(=O)[C@@H](NC(=O)[C@H]2CC3(C2)C[C@H](N2CCN(c4cnc(N5CCN6c7cc(-c8ccccc8O)nnc7NC[C@H]6C5)nc4)CC2)C3)C(C)(C)C)cc1 (stereo partly drawn) [I-19]		10 to 100		10 to 50		1 to 10	C (C (10-100 fold))	B (B (>70-90% degradation))	A (A (>90% degradation))	A (A (>90% degradation))
Cc1ncsc1-c1ccc(CNC(=O)[C@@H]2C[C@@H](O)CN2C(=O)C(c2cc(OCCCCN3CCC(c4cnc(N5CCN6c7cc(-c8ccccc8O)nnc7NC[C@H]6C5)nc4)CC3)no2)C(C)C)cc1 (stereo partly drawn) [I-50, (2S,4R)-4-hydroxy-1-(2-(3-(4-(4-(2-((S)-2-(2-hydroxyphenyl)-6a,7,9,10-tetrahydro-5H-pyrazino[1′,2′:4,5]pyrazino[2,3-c]pyridazin-8(6H)-yl)pyrimidin-5-yl)piperidin-1-yl)butoxy)isoxazol-5-yl)-3-methylbutanoyl)-N-(4-(4-methylthiazol-5-yl)benzyl)pyrrolidine-2-carboxamide]	> 90	1 to 10	> 90	< 10	> 90	< 1	D (D (<10 fold))			
Cc1ncsc1-c1ccc(CNC(=O)[C@@H]2C[C@@H](O)CN2C(=O)C(c2cc(OCCCCN3CCC(c4cnc(N5CCN6c7cc(-c8ccccc8O)nnc7NC[C@@H]6C5)nc4)CC3)no2)C(C)C)cc1 (stereo partly drawn) [I-51, (2S,4R)-4-hydroxy-1-(2-(3-(4-(4-(2-((R)-2-(2-hydroxyphenyl)-6a,7,9,10-tetrahydro-5H-pyrazino[1′,2′:4,5]pyrazino[2,3-c]pyridazin-8(6H)-yl)pyrimidin-5-yl)piperidin-1-yl)butoxy)isoxazol-5-yl)-3-methylbutanoyl)-N-(4-(4-methylthiazol-5-yl)benzyl)pyrrolidine-2-carboxamide]	> 90	1 to 10	70 to 90	10 to 50	> 90	< 1	D (D (<10 fold))			

More lines, now with the values ahead:

Dmax (SMARCA4) [%]	DC50 (SMARCA4) [nM]	Dmax (SMARCA2 [1]) [%]	DC50 (SMARCA2 [1]) [nM]	Dmax (SMARCA2 [2]) [%]	DC50 (SMARCA2 [2]) [nM]	Selectivity in MV411 (SMARCA2 [2])	SMARCA4 MSD MV411 degradation 24 h: average Dmax % (SMARCA4)	SMARCA2 MSD A549 degradation 24 h: Average Dmax % (SMARCA2 [1])	SMARCA2 MSD MV411 degradation 24 h: average Dmax % (SMARCA2 [2])	Structure (SMILES)
> 90	1 to 10	> 90	10 to 50	> 90	< 1	D (D (<10 fold))				Cc1ncsc1-c1ccc(CNC(=O)[C@@H]2C[C@@H](O)CN2C(=O)C(c2cc(OCCCN3CCC(c4cnc(N5CCN6c7cc(-c8ccccc8O)nnc7NCC6C5)nc4)CC3)no2)C(C)C)cc1 (stereo in doubt) [I-52, (2S,4R)-4-hydroxy-1-(2-(3-(3-(4-(2-((S)-2-(2-hydroxyphenyl)-6a,7,9,10-tetrahydro-5H-pyrazino[1′,2′:4,5]pyrazino[2,3-c]pyridazin-8(6H)-yl)pyrimidin-5-yl)piperidin-1-yl)propoxy)isoxazol-5-yl)-3-methylbutanoyl)-N-(4-(4-methylthiazol-5-yl)benzyl)pyrrolidine-2-carboxamide]
> 90	10 to 100	> 90	10 to 50	> 90	1 to 10	C (C (10-100 fold))				Cc1ncsc1-c1ccc(CNC(=O)[C@@H]2C[C@@H](O)CN2C(=O)C(c2cc(N3CCC(CCN4CCC(c5cnc(N6CCc7[nH]c8nnc(-c9ccccc9O)cc8c7[C@H]6C)nc5)CC4)CC3)no2)C(C)C)cc1 (stereo partly drawn) [I-7]
70 to 90	1 to 10	70 to 90	10 to 50	> 90	1 to 10	D (D (<10 fold))				Cc1ncsc1-c1ccc(CNC(=O)[C@@H]2C[C@@H](O)CN2C(=O)C(c2cc(OCCCCN3CCC(c4cnc(N5CCc6[nH]c7nnc(-c8ccccc8O)cc7c6[C@H]5C)nc4)CC3)no2)C(C)C)cc1 (stereo partly drawn) [I-35]
> 90	1 to 10	> 90	10 to 50	> 90	1 to 10	D (D (<10 fold))				Cc1ncsc1-c1ccc(CNC(=O)[C@@H]2C[C@@H](O)CN2C(=O)C(c2cc(OCCN3CCC(N4CCC(c5cnc(N6CCc7[nH]c8nnc(-c9ccccc9O)cc8c7[C@H]6C)nc5)CC4)CC3)no2)C(C)C)cc1 (stereo partly drawn) [I-36]
